According to ChEMBL document CHEMBL2086382, “From bradykinin B2 receptor antagonists to orally active and selective bradykinin B1 receptor antagonists” (J Med Chem, 2012):

Assays:
Details in all cases: in vivo
[1] = Volume of distribution in Swiss mouse at 5 mg/kg, po and 1 mg/kg, iv; type: ADME, organism-based
[2] = Oral bioavailability in Swiss mouse at 5 mg/kg; type: ADME, organism-based
[3] = Volume of distribution in Beagle dog at 5 mg/kg, po and 1 mg/kg, iv; type: ADME, organism-based, Canis lupus familiaris
[4] = Oral bioavailability in Beagle dog at 5 mg/kg; type: ADME, organism-based, Canis lupus familiaris
[5] = Oral bioavailability in Sprague-Dawley rat at 10 mg/kg; type: ADME, organism-based
[6] = Volume of distribution in Sprague-Dawley rat at 10 mg/kg, po and 1 mg/kg, iv; type: ADME, organism-based

SMILES | Vd [1] [L/kg] | bioavailability [2] [%] | Vd [3] [L/kg] | bioavailability [4] [%] | bioavailability [5] [%] | Vd [6] [L/kg]
COc1cc(C)c(S(=O)(=O)N(C)CCOCC(=O)N2CCN([C@@H]3CN4CCC3CC4)CC2)c(C)c1 | 1 | 6.7 | – | – | – | –
COc1cc(C)c(S(=O)(=O)N(C)CCOCC(=O)N2CCN(C3CCN(C)CC3)CC2)c(C)c1 | 1.3 | 22 | 2.7 | 43 | 18 | 1.5
CCN1CCC(N2CCN(C(=O)COCCN(C)S(=O)(=O)c3c(C)cc(OC)cc3C)CC2)CC1 | – | – | – | – | 12 | 3.8
COc1cc(C)c(S(=O)(=O)N(C)CCOCC(=O)N2CCN(CC3CCN(C)CC3)CC2)c(C)c1 | – | – | – | – | 16 | 3.5
COc1cc(C)c(S(=O)(=O)N(C)CCOCC(=O)N2CCC(C(C)(C)CN(C)C)CC2)c(C)c1 | – | – | – | – | 3.8 | 0.5
COc1cc(C)c(S(=O)(=O)N(C)CCOCC(=O)N2CCC(CCN(C)C)CC2)c(C)c1 | 0.5 | 38 | – | – | 19 | 0.79
COc1cc(C)c(S(=O)(=O)N(C)CCOCC(=O)N2CCC(N3CCN(C)CC3)CC2)c(C)c1 | – | – | – | – | 6 | 0.6
COc1cc(C)c(S(=O)(=O)N(C)CCOCC(=O)N2CCC(C3CCN(C)CC3)CC2)c(C)c1 | – | – | – | – | 12.3 | 0.6
COc1cc(C)c(S(=O)(=O)N(C)CCOCC(=O)N(C)Cc2ccc(C3=NCCN3)cc2)c(C)c1 [SAFOTIBANT] | 2.6 | 12 | – | – | 0.3 | 1.4
